Measurements reported in publication PMC12040169 (PLOS Biology, 2025).

Test: in vitro
Details: human, hela cells, % viability

COC(=O)[C@@H]1CN(C(=O)Nc2ccccc2)CCN1S(C)(=O)=O [CBK289611]
viability at 28.5 h, 10 µM: 96.9%

COc1ccc(C[C@@H]2NC(=O)[C@H]3CN(C(=O)Nc4cccc(OC)c4)CCN3C2=O)cc1 [CBK289617]
viability at 28.5 h, 10 µM: 98.9%

COc1cccc(NC(=O)N2CCN3C(=O)[C@H](Cc4ccc(O)cc4)NC(=O)[C@@H]3C2)c1 [CBK289618]
viability at 28.5 h, 10 µM: 99%

C=CCO[C@@H]1C[C@H]2C(=O)N3CCN(C(=O)NC4CCCCC4)C[C@H]3C(=O)N2C1 [CBK289619]
viability at 28.5 h, 10 µM: 82.5%

COC(=O)[C@@H](C)NC(=O)[C@@H]1CN(C(=O)NC(C)C)CCN1C(=O)C1CCCCC1 [CBK289622]
viability at 28.5 h, 10 µM: 90.7%

COC(=O)[C@@H](C)NC(=O)[C@@H]1CN(C(=O)NC(C)C)CCN1C(=O)c1cccs1 [CBK289624]
viability at 28.5 h, 10 µM: 110%

COC(=O)[C@@H](C)NC(=O)[C@@H]1CN(C(=O)c2cccc(F)c2)CCN1S(C)(=O)=O [CBK289625]
viability at 28.5 h, 10 µM: 96.8%

COC(=O)[C@@H](C)NC(=O)[C@H]1CN(S(=O)(=O)c2ccccc2)CCN1C(C)=O [CBK289626]
viability at 28.5 h, 10 µM: 88.2%

COC(=O)[C@@H](C)NC(=O)[C@H]1CN(C(=O)Nc2ccccc2)CCN1C(C)=O [CBK289627]
viability at 28.5 h, 10 µM: 86.3%

COC(=O)[C@@H](C)NC(=O)[C@H]1CN(C(=O)c2cccnc2)CCN1C(=O)c1cccs1 [CBK289628]
viability at 28.5 h, 10 µM: 82.4%

COC(=O)[C@@H](C)NC(=O)[C@H]1CN(C(=O)Nc2ccccc2)CCN1C(=O)c1cccs1 [CBK289629]
viability at 28.5 h, 10 µM: 97.2%

COC(=O)[C@@H](C)NC(=O)[C@H]1CN(C(=O)c2cccnc2)CCN1C(=O)NC(C)C [CBK289630]
viability at 28.5 h, 10 µM: 104%

COC(=O)[C@@H](C)NC(=O)[C@H]1CN(C(=O)Nc2ccccc2)CCN1C(=O)NC(C)C [CBK289631]
viability at 28.5 h, 10 µM: 113%

C[C@@H](c1ccccc1)N1C(=O)[C@@H]2CN(C(=O)CC3(CC(=O)O)CCCC3)CCN2C1=O [CBK289637]
viability at 28.5 h, 10 µM: 88.7%

C[C@H](c1ccccc1)N1C(=O)[C@@H]2CN(C(=O)CC(C)(C)CC(=O)O)CCN2C1=O [CBK289639]
viability at 28.5 h, 10 µM: 114%

O=C1[C@H]2CN(S(=O)(=O)c3ccc(F)cc3)CCN2C(=O)N1CCO [CBK289640]
viability at 28.5 h, 10 µM: 84.5%

COCC(=O)N1CCN2C(=O)N(Cc3ccccc3)C(=O)[C@H]2C1 [CBK289641]
viability at 28.5 h, 10 µM: 91.4%

c1ccc(-c2cc(CC3(NCC4CCCCC4)COC3)no2)nc1 [CBK289644]
viability at 28.5 h, 10 µM: 93%

CN(Cc1ccccc1)Cc1cc(CC2(NCc3ccccc3)COC2)no1 [CBK289645]
viability at 28.5 h, 10 µM: 88.9%

O=C(N[C@@H](Cn1cc(Cl)c(=O)[nH]c1=O)C(=O)O)C1CC1 [CBK289649]
viability at 28.5 h, 10 µM: 88.3%

O=C(N[C@@H](Cn1ccc(=O)[nH]c1=O)C(=O)O)C1CCCCC1 [CBK289651]
viability at 28.5 h, 10 µM: 85.8%

N#Cc1ccc(CNC2(Cc3cc(-c4ccc(F)cc4)on3)COC2)cc1 [CBK289653]
viability at 28.5 h, 10 µM: 87.3%

Fc1ccc(-c2cc(CC3(NCc4ccc5c(c4)OCO5)COC3)no2)cc1 [CBK289654]
viability at 28.5 h, 10 µM: 109%

O=C(c1cc(CC2(NCc3ccc(F)cc3)COC2)no1)N1CCCCC1 [CBK289657]
viability at 28.5 h, 10 µM: 92.4%

O=C(N[C@@H](Cn1cc(Cl)c(=O)[nH]c1=O)C(=O)O)C1CCC1 [CBK289659]
viability at 28.5 h, 10 µM: 89.2%

Oc1cccc(-c2cc(CC3(NCc4cnc5ccccc5c4)COC3)no2)c1 [CBK289662]
viability at 28.5 h, 10 µM: 107%

CCc1cn(C[C@H](NC(=O)C2CCCC2)C(=O)O)c(=O)[nH]c1=O [CBK289664]
viability at 28.5 h, 10 µM: 106%

Cn1ccnc1CN1C(=O)CO[C@H]2CN(Cc3ccc4c(c3)OCO4)C[C@H]21 [CBK289665]
viability at 28.5 h, 10 µM: 90%

Cc1cn(C[C@H](NC(=O)c2cccc(F)c2)C(=O)O)c(=O)[nH]c1=O [CBK289667]
viability at 28.5 h, 10 µM: 109%

CCc1cn(C[C@H](NC(=O)c2ccco2)C(=O)O)c(=O)[nH]c1=O [CBK289670]
viability at 28.5 h, 10 µM: 86%

O=C1COC[C@H]([C@H](O)c2ccc(NC(=O)c3cnccn3)cc2)N1 [CBK289673]
viability at 28.5 h, 10 µM: 104%

CCNC(=O)N1C[C@@H]2OCC(=O)N(Cc3ccccc3)[C@@H]2C1 [CBK289679]
viability at 28.5 h, 10 µM: 104%

CCNC(=O)N1C[C@@H]2OCC(=O)N(Cc3cccnc3)[C@@H]2C1 [CBK289682]
viability at 28.5 h, 10 µM: 109%

CCN1C(=O)COC[C@@H]1[C@H](O)c1ccc(NC(=O)C2CCC2)cc1 [CBK289686]
viability at 28.5 h, 10 µM: 85.7%

CC(C)CN1C(=O)COC[C@@H]1[C@H](O)c1ccc(NC(=O)C2CCCCC2)cc1 [CBK289687]
viability at 28.5 h, 10 µM: 106%

COc1ccccc1C(=O)Nc1ccc([C@@H](O)[C@H]2COCC(=O)N2)cc1 [CBK289688]
viability at 28.5 h, 10 µM: 97.3%

CS(=O)(=O)c1ccc(CN2C[C@@H]3OCC(=O)N(Cc4ccc(F)cc4)[C@@H]3C2)cc1 [CBK289690]
viability at 28.5 h, 10 µM: 119%

NC(=O)CN1C(=O)CO[C@H]2CN(Cc3ccccc3F)C[C@H]21 [CBK289693]
viability at 28.5 h, 10 µM: 114%

CC1(C)[C@H](Cc2cc(COc3ccccc3)on2)C[C@@H]1NC1CCOCC1 [CBK289694]
viability at 28.5 h, 10 µM: 96.5%

CCN1C(=O)COC[C@@H]1[C@H](O)c1ccc(NC(=O)c2ccco2)cc1 [CBK289695]
viability at 28.5 h, 10 µM: 85.3%

COc1ccc(-c2cc(CC3(NCc4ccccc4O)COC3)no2)cc1 [CBK289697]
viability at 28.5 h, 10 µM: 91.3%

O=C(c1ccccn1)N1C[C@@H]2OCC(=O)N(Cc3ccccc3)[C@@H]2C1 [CBK289698]
viability at 28.5 h, 10 µM: 84.3%

CC(=O)N1CCC(N[C@H]2C[C@@H](Cc3cc(CN4CCCCC4)on3)C2(C)C)CC1 [CBK289699]
viability at 28.5 h, 10 µM: 89%

COCc1cc(CC2(NCc3ccc(NC(C)=O)cc3)COC2)no1 [CBK289701]
viability at 28.5 h, 10 µM: 110%

CCCCc1cc(C[C@@H]2C[C@H](NS(C)(=O)=O)C2(C)C)no1 [CBK289702]
viability at 28.5 h, 10 µM: 105%

CC1(C)[C@H](Cc2cc(COc3ccccc3)on2)C[C@@H]1NS(C)(=O)=O [CBK289703]
viability at 28.5 h, 10 µM: 89.5%

COCCN1C(=O)CO[C@H]2CN(C(=O)Nc3ccc(F)cc3)C[C@H]21 [CBK289705]
viability at 28.5 h, 10 µM: 85.3%

Oc1ccc(Cn2ccnc2)c2cccnc12 [CBK291102]
viability at 28.5 h, 10 µM: 89.3%

Cc1cc(Cn2nnnc2-c2ccncc2)cc(C)c1O [CBK291103]
viability at 28.5 h, 10 µM: 104%

CC(=O)N1CCc2cc(C(=O)CN3CCOCC3)ccc21 [CBK291105]
viability at 28.5 h, 10 µM: 89.2%

O=C(CCc1cccnc1)N1CCCCC1c1nc2cc(F)ccc2[nH]1 (centres unmarked) [CBK291106]
viability at 28.5 h, 10 µM: 112%

O=C(CCc1ccc(=O)[nH]n1)N1CCCCC1c1nc2cc(F)ccc2[nH]1 (centres unmarked) [CBK291107]
viability at 28.5 h, 10 µM: 105%

CC(=O)Nc1cnn(-c2ccc(C(=O)N3CCCCC3c3nc4ccccc4[nH]3)cc2)c1 (centres unmarked) [CBK291109]
viability at 28.5 h, 10 µM: 83.3%

CC(=O)N1CCCC(c2nc(-c3ccncc3)ncc2-c2ccccc2)C1 (centres unmarked) [CBK291110]
viability at 28.5 h, 10 µM: 82.2%

Cc1ccc(Nc2ncc(C(=O)NCc3ccccn3)c3ccccc23)cc1Cl [CBK291113]
viability at 28.5 h, 10 µM: 109%

Cc1cc(NC(=O)c2c(F)cccc2F)nc2c1c(=O)oc1ccccc12 [CBK291115]
viability at 28.5 h, 10 µM: 110%

O=C(Cn1c(=O)cc(O)c2ccccc21)N1CCN(c2ccccn2)CC1 [CBK291117]
viability at 28.5 h, 10 µM: 94.4%

CCCn1c(=O)c(C(=O)NCCN(CC)CC)c(O)c2cc(Br)ccc21 [CBK291118]
viability at 28.5 h, 10 µM: 85.7%

Cc1cc(NC(=O)c2ccc3c(c2)OCO3)nc2c1c(=O)oc1ccccc12 [CBK291121]
viability at 28.5 h, 10 µM: 117%

Cc1cc(NC(=O)c2ccc3ccccc3c2)nc2c1c(=O)oc1ccccc12 [CBK291122]
viability at 28.5 h, 10 µM: 117%

Cc1cc(O)cc(=O)n1Cc1cccnc1 [CBK291123]
viability at 28.5 h, 10 µM: 112%

Cc1cc(NC(=O)c2ccco2)nc2c1c(=O)oc1ccccc12 [CBK291124]
viability at 28.5 h, 10 µM: 110%

Cc1cc(NC(=O)c2ccccc2)nc2c1c(=O)oc1ccccc12 [CBK291126]
viability at 28.5 h, 10 µM: 113%

Cc1cc(NC(=O)Cc2ccccc2)nc2c1c(=O)oc1ccccc12 [CBK291127]
viability at 28.5 h, 10 µM: 102%

CCCCCn1c(=O)c(C(=O)NCc2ccc(Cl)cc2)c(O)c2ccccc21 [CBK291131]
viability at 28.5 h, 10 µM: 117%

Cc1cc(NC(=O)C(C)(C)Oc2ccc(Cl)cc2)nc2c1c(=O)oc1ccccc12 [CBK291132]
viability at 28.5 h, 10 µM: 112%

CCCCC1CCC(C(=O)Nc2cc(C)c3c(=O)oc4ccccc4c3n2)CC1 (centres unmarked) [CBK291136]
viability at 28.5 h, 10 µM: 101%

CC(C)N1CNc2c(c(=O)nc(O)n2Cc2ccccc2)C1 [CBK291139]
viability at 28.5 h, 10 µM: 92.5%

O=c1[nH]c(=O)n(Cc2ccccc2)c2nc[nH]c12 [CBK291140]
viability at 28.5 h, 10 µM: 108%

Cc1ccccc1-c1csc2c(=O)[nH]c(N3CCC4(CC3)OCCO4)nc12 [CBK291141]
viability at 28.5 h, 10 µM: 96.9%

Cc1cccc(-c2csc3c(=O)[nH]c(N4CCC5(CC4)OCCO5)nc23)c1 [CBK291142]
viability at 28.5 h, 10 µM: 102%

Cc1cc(O)c(C(=O)Nc2cccc(Cl)c2)c(=O)n1Cc1ccco1 [CBK291143]
viability at 28.5 h, 10 µM: 91.2%

O=C(O)c1cccc(N2C(=O)CC(n3cnc4ccccc43)C2=O)c1 (centres unmarked) [CBK291145]
viability at 28.5 h, 10 µM: 89.8%

COc1ccc(C(=O)Nc2nc3ccc(S(N)(=O)=O)cc3s2)cc1 [CBK291147]
viability at 28.5 h, 10 µM: 96.9%

CCCCn1nc(C(=O)N2CCCCC2c2ncc(-c3cccc(F)c3)[nH]2)ccc1=O (centres unmarked) [CBK291149]
viability at 28.5 h, 10 µM: 98.6%

Cc1cc(NC(=O)C(C)Oc2ccccc2)nc2c1c(=O)oc1ccccc12 (centres unmarked) [CBK291153]
viability at 28.5 h, 10 µM: 95.8%

c1ccc(-c2nc(-c3ccncc3)[nH]c2-c2ccccc2)cc1 [CBK291155]
viability at 28.5 h, 10 µM: 85.3%

Oc1ccc(Nc2cc(-c3ccccc3)ncn2)cc1 [CBK291157]
viability at 28.5 h, 10 µM: 79.8%

COc1ccc(Oc2nccc(-c3ccccc3)c2C#N)cc1 [CBK291158]
viability at 28.5 h, 10 µM: 98.7%

O=c1c(-c2cc(O)[nH]n2)c(O)c2ccccc2n1Cc1ccccc1 [CBK291160]
viability at 28.5 h, 10 µM: 97.2%

Cc1cc(NC(=O)c2cccc(C(F)(F)F)c2)nc2c1c(=O)oc1ccccc12 [CBK291163]
viability at 28.5 h, 10 µM: 101%

O=c1c(Cl)c(O)c2ccccc2n1Cc1ccccc1 [CBK291164]
viability at 28.5 h, 10 µM: 91.2%

O=c1c(Cc2ccccc2)c(O)c2cccc3c2n1CCC3 [CBK291166]
viability at 28.5 h, 10 µM: 93.3%
